In US8017611B2, “Pyridine and pyrazine derivatives -083” (AstraZeneca AB, priority 2007, dated 2011):
Where two headings read alike, the source gives them in different places.

Assays:
c-Met = target: T1, c-Met (Homo sapiens, UniProt P08581); test: In vitro c-Met kinase assay (AlphaScreen), Test (c); assay type: biochemical; conditions: read-out: IC50 versus c-Met tyrosine kinase
T1 construct: pY^1234pY^1235c-Met(1074-1366) kinase domain
Procedure: The assay used AlphaScreen technology (Gray et al., Analytical Biochemistry, 2003, 313: 234-245) to determine the ability of test compounds to prevent the activation of c-Met, in which wild type activated c-Met phosphorylates a mutant form of c-Met lacking catalytic activity but retaining the ability to be phosphorylated on the activating residues.
Kinase activity assays were performed in 384-well low-volume white plates (Greiner, 784075) with a total volume of 12 μL in each well. Each kinase reaction contained 40 pg (100 pM) pY^1234pY^1235c-Met(1074-1366) kinase domain, 44 ng (100 nM) cMyc-[D1204N,R1208Q]c-Met(1069-1366)-biotin, 25 mM HEPES (pH7.4), 0.1 mM sodium orthovanadate, 1 mM DTT, 0.01% (v/v) Tween-20, 10 mM magnesium chloride, 0.1% BSA, 50 μM ATP.
Various concentrations of test compounds were each added in 6% (v/v) DMSO to yield a final assay DMSO concentration of 1% (v/v). […] Plates were read using an Envision (Perkin Elmer) with excitation at 680 nm, emission […]. […]

[1] = target: T2, recombinant Axl tyrosine kinase (Homo sapiens, UniProt P30530); test: In vitro Axl kinase assay (AlphaScreen), Test (a); assay type: biochemical
T2 construct: encompassing amino acids 473 to 894 of Axl; GST (N); made in house; host or cells: SF126 insect cells
T2 sequence (P30530 473-894): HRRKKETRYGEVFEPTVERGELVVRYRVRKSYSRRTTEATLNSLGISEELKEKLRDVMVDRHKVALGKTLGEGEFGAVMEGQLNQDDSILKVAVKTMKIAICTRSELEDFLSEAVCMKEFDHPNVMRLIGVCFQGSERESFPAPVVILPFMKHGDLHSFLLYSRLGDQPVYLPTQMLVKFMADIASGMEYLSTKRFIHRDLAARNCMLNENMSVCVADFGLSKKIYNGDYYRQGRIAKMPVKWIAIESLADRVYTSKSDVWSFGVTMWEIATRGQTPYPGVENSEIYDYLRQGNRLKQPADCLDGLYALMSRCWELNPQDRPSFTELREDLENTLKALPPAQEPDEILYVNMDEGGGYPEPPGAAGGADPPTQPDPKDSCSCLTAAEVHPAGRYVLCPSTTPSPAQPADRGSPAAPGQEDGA

[2] = target: T3, Axl expressed on NCI H1299 lung large cell carcinoma cells (Homo sapiens, UniProt P30530); test: Cellular phospho-Axl ELISA assay, Test (b); conditions: Test (b)
T3 sequence (P30530 26-894): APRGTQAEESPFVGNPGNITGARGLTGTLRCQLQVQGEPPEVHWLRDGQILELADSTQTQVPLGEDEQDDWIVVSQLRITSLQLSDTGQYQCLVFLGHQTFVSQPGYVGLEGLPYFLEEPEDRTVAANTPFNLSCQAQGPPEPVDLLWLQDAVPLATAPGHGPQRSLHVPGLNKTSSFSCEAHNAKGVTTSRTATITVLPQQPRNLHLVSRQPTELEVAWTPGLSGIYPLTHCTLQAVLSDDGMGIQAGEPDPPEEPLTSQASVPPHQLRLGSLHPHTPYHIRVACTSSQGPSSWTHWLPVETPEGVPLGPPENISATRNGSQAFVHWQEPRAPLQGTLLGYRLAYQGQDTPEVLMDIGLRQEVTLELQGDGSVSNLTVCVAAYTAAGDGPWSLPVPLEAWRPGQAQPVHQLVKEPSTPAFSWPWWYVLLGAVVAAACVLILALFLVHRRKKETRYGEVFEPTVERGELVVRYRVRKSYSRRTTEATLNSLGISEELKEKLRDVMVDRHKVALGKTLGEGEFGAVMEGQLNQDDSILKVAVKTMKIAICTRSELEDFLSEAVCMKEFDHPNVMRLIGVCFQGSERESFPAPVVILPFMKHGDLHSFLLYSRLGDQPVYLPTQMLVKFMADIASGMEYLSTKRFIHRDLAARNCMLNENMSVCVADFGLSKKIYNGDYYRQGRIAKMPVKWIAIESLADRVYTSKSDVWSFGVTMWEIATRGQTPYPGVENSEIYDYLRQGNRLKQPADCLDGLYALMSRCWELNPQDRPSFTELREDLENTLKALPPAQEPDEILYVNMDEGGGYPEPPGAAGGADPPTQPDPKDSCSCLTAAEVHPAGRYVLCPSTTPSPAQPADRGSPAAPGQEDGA
Procedure: This assay uses a conventional ELISA method to determine the ability of test compounds to inhibit phosphorylation of tyrosine residues in Axl.
100 μl Aliquots were seeded into each of the wells of a clear 96 well tissue culture plate and the plates were incubated overnight at 37° C. with 5% CO2 to allow the cells to adhere to the wells.
Aliquots of each compound concentration were added to the cells in each well using the Echo 550 (Labcyte Inc., Sunnyvale, Calif., US). Control cells received DMSO only. The cells were incubated for 2 hours at 37° C. with 5% CO2.
The resultant tissue culture plates were incubated on ice for 30 minutes to ensure full lysis.
The wells were washed 3 times with 250 μl per well of PBS containing 0.05% v/v Tween (PBS/T). The wells were treated with 3% w/v BSA in PBS at ambient temperature for 2 hours and subsequently washed 3 times with 250 μl per well of PBS/T.
50 μl Aliquots of the NCI H1299 cell lysates were added to the ELISA plates.
100 μl Aliquots of substrate solution were added to each of the wells and fluorescence was read on a Tecan Ultra plate reader (Tecan UK Ltd., Reading, Berkshire, UK).

T1 sequence (P08581 1074-1366): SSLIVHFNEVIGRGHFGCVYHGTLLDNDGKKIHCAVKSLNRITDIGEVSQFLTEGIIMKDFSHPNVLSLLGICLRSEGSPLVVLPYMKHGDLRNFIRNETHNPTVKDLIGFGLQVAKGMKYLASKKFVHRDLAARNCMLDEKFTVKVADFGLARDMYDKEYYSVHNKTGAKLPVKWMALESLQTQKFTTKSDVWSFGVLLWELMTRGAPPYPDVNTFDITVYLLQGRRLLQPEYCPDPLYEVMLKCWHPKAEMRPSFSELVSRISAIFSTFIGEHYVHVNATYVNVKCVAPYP

- IC50 (c-Met): ~1950 nM
- IC50 ([1]; Test (a), read-out: IC50 versus Axl tyrosine kinase): ~24 nM
- % Axl tyrosine kinase inhibition at 1 μM concentration ([1]; test compound at 1 μM, first value quoted): 96.6%
- IC50 ([2]; read-out: IC50 versus cellular phospho-Axl, mean recalculated from a larger number of replicates, later recalculated): 111 nM
- IC50 ([2]; read-out: IC50 versus cellular phospho-Axl, NCI H1299 cells stimulated with GAS6): ~39 nM
Compound: CN1CCC(n2cc(-c3cnc(N)c(-c4nc5ccc(F)cc5o4)c3)cn2)CC1 [Example 7.2]
